Source: patent US5109111A, “CRF antagonists” (The Salk Institute for Biological Studies, priority 1990, dated 1992)
Square brackets hold non-standard residues; d marks the D form. Peptide text beside a SMILES is read from it. Nle = CCCC[C@H](N)C(=O)O; Nva = CCC[C@H](N)C(=O)O

Tests used:
[1] = tested on: secretion of ACTH stimulated by oCRF in cultured rat pituitary cells; assay: Blocking of oCRF-stimulated ACTH and β-endorphin secretion by cultured rat pituitary cells; type: cell-based; details: for inhibition of the secretion of ACTH and β-END-LI: result in words; for potency compared to AHC(9-41) in blocking by 50% the secretion of ACTH: ACTH secretion stimulated by a 1 nM dose of oCRF, AHC(9-41) = reference
Method: The effectiveness of synthetic CRF antagonists to block the secretion of ACTH and β-endorphin by cultured rat pituitary cells is measured using the procedure as generally set forth in Vale et al., Endocrinology, 91, 562 (1972).

[2] = tested on: secretion of ACTH and β-endorphin-like (β-END-LI) immunoactivities; assay: hCRF stimulation of ACTH and β-END-LI secretion in vivo in rats
Method: Plasma levels of ACTH and β-END-LI are elevated for at least 5-20 minutes following the intraveneous administration of hCRF to nembutal-anesthesized male rats and to quiescent male or female rats with indwelling intravenous cannulae. […] These antagonists should counteract such effects.

[3] = tested on: GRF-stimulated secretion of GH; assay: Specificity: GRF-stimulated secretion of GH; type: cell-based
Source text: (§1) Compared to AHC(9-41), a potent CRF antagonist disclosed in U.S. Pat. No. 4,605,642, this peptide was more than 17 times as potent.

ACTH release = assay: In vivo duration of lowering ACTH release after iv injection, against the Standard; set-up: species or system rats
[4] = tested on: TRF-stimulated secretion of TSH and prolactin; assay: Specificity: TRF-stimulated secretion of TSH and prolactin; type: cell-based
Source text: as §1

[5] = tested on: GnRH-stimulated secretion of LH and FSH; assay: Specificity: GnRH-stimulated secretion of LH and FSH; type: cell-based
Source text: as §1

## CCCC[C@H](NC(=O)[C@H](CCCCN)NC(=O)[C@H](C)NC(=O)[C@H](CCSC)NC(=O)[C@H](CCC(=O)O)NC(=O)[C@H](C)NC(=O)[C@@H](NC(=O)[C@H](CCC(=O)O)NC(=O)[C@H](CCCNC(=N)N)NC(=O)[C@H](CC(C)C)NC(=O)[C@H](CC(C)C)NC(=O)[C@H](Cc1c[nH]cn1)NC(=O)[C@H](N)Cc1ccc(O)cc1)C(C)C)C(=O)N[C@@H](CCC(=O)O)C(=O)N[C@@H](CCC(N)=O)C(=O)N[C@@H](CCC)C(=O)N[C@@H](C)C(=O)N[C@@H](CCC(N)=O)C(=O)N[C@@H](CCC(N)=O)C(=O)N[C@@H](C)C(=O)N[C@@H](Cc1c[nH]cn1)C(=O)N[C@@H](CO)C(=O)N[C@@H](CC(N)=O)C(=O)N[C@@H](CCCNC(=N)N)C(=O)N[C@@H](CCCCN)C(=O)N[C@@H](CC(C)C)C(=O)N[C@@H](CCCC)C(=O)N[C@@H](CCC(=O)O)C(=O)N[C@@H](CCCC)C(=O)N[C@H](C(N)=O)[C@@H](C)CC [XXX, [D-Tyr^12, Ala^19, Lys^23, Nle^24,38,40 Nva^27,]-hCRF(12-41)] (H-[dY]HLLREVAEMAK[Nle]EQ[Nva]AQQAHSNRKL[Nle]E[Nle]I-NH2)
[1]
  inhibition of the secretion of ACTH and β-END-LI: inhibits the secretion of ACTH and β-END-LI

## CC[C@H](C)[C@H](NC(=O)[C@@H](NC(=O)[C@H](CCC(=O)O)NC(=O)[C@H](CCSC)NC(=O)[C@H](CC(C)C)NC(=O)[C@H](CCCCN)NC(=O)[C@H](CCCNC(=N)N)NC(=O)[C@H](CC(N)=O)NC(=O)[C@H](CO)NC(=O)[C@H](Cc1c[nH]cn1)NC(=O)[C@H](C)NC(=O)[C@H](CCC(N)=O)NC(=O)[C@H](CCC(N)=O)NC(=O)[C@H](C)NC(=O)[C@H](CC(C)C)NC(=O)[C@H](CCC(N)=O)NC(=O)[C@H](CCC(=O)O)NC(=O)[C@H](C)NC(=O)[C@H](CCCNC(=N)N)NC(=O)[C@H](C)NC(=O)[C@H](CCSC)NC(=O)[C@H](CCC(=O)O)NC(=O)[C@H](CC(C)C)NC(=O)[C@@H](NC(=O)[C@H](CCC(=O)O)NC(=O)[C@H](CCCNC(=N)N)NC(=O)[C@H](CC(C)C)NC(=O)[C@H](CC(C)C)NC(=O)[C@H](Cc1c[nH]cn1)NC(=O)[C@H](Cc1ccccc1)NC(=O)[C@@H](NC(=O)[C@H](CC(C)C)NC(=O)[C@H](CC(=O)O)NC(=O)[C@H](CC(C)C)NC(=O)[C@H](CO)NC(=O)[C@@H](NC(=O)[C@@H]1CCCN1C(=O)[C@@H]1CCCN1C(=O)[C@H](CCC(=O)O)NC(=O)[C@H](CCC(=O)O)NC(=O)[C@@H](N)CO)[C@@H](C)CC)[C@@H](C)O)C(C)C)[C@@H](C)CC)C(N)=O [hCRF]
[2]; intravenous hCRF, nembutal-anesthetized male rats and quiescent cannulated male or female rats
  time plasma levels of ACTH and β-END-LI are elevated: 5 to 20 min
[2]; several rat preparations
  stimulation of secretion of ACTH and β-END-LI in vivo: powerful stimulator

## AHC(9-41)
[3]
  effect on GRF-stimulated secretion of GH: no effect
ACTH release; dosages of 0.5 mg, two runs
  duration of bioactivity (lowering ACTH release): about 40 minutes
ACTH release; dose of 0.1 mg
  duration of effectiveness in lowering ACTH release: no measurable effect
[4]
  effect on TRF-stimulated secretion of TSH and prolactin: no effect
[5]
  effect on GnRH-stimulated secretion of LH and FSH: no effect

## [4ClD-Phe^12, Nle^18,21,38 ]-AHC(9-41) [XX]
[1]
  inhibition of the secretion of ACTH and β-END-LI: inhibits the secretion of ACTH and β-END-LI

## [4FD-Phe^12, CML^14,15,19,27,33,37, CMA^22,32,41, Nle^38 ]-AHC(12-41) [XIX]
[1]
  inhibition of the secretion of ACTH and β-END-LI: inhibits the secretion of ACTH and β-END-LI

## [CML^14,19,27,36, Nle^38 ]-AHC(12-41) [XXVI]
[1]
  inhibition of the secretion of ACTH and β-END-LI: inhibits the secretion of ACTH and β-END-LI

## [D-2Nal^12, Nle^21,38 ]-hCRF(12-41) [X]
[1]
  potency compared to AHC(9-41) in blocking by 50% the secretion of ACTH: about 9 times as potent as AHC(9-41)
  inhibition of the secretion of ACTH and β-END-LI: inhibits the secretion of ACTH and β-END-LI

## [D-Val^12, Nle^21,38, Ile^24,27, Nva^41 ]-hCRF(11-41) [XXVIII]
[1]
  inhibition of the secretion of ACTH and β-END-LI: inhibits the secretion of ACTH and β-END-LI

## [Nle^21,38, Arg^37 ]-hCRF(12-41) [IX]
[1]
  potency compared to AHC(9-41) in blocking by 50% the secretion of ACTH: more than 6 times as potent as AHC(9-41)
  inhibition of the secretion of ACTH and β-END-LI: inhibits the secretion of ACTH and β-END-LI
